# Reference: publication PMC5620609 (Pharmaceuticals, 2017)
# Like-named read-outs stand apart in the source and are kept apart here.
# How the values were obtained:
# [1] = tested on: human colon cancer cell line HCT-116; experiment: In vitro growth inhibition (CellTiter-Glo), HCT-116; type: cell-based; conditions: HCT 116 TP53(-/-), read-out: GI50 (concentration of drug that inhibited 50% of cell growth), 72 h exposure
# Protocol: Cells were grown in an appropriate medium for the cell line of interest; 96 well plates of each cell line were seeded with 5000 cells per well and left overnight. Drug exposed cells were incubated at 37 °C for 72 h. At the end of the 72 h exposure period, plates were removed for the CellTiter-Glo® assay. Luminescence was recorded on a Synergy 4.0. Assays were performed in triplicate.
# NCI 60 cell line panel = experiment: NCI 60 cell line panel, allocation of cell lines by growth inhibition at 10 µM; type: cell-based, human
# Text: (§1) Details of the NCI 60 One Dose Screen are well known and available online.
# [2] = Pharmacokinetic study, IV in mice; type: in vivo; conditions: 10 mg/kg; for half-life: iv
# Protocol: Blood aliquots (300–400 µL) were collected via cardiac puncture from anesthetized mice in anticoagulant coated tubes, then kept on ice and centrifuged at 2500× g for 15 min at 4 °C. The plasma was harvested and kept frozen at −80 °C. Plasma samples were processed using acetonitrile precipitation and analyzed by HPLC-MS/MS. A plasma calibration curve was generated and a reportable linear range determined, along with the lower limit of quantitation.
# [3] = tested on: HL-60 human leukemia (TP53 null) xenograft; type: in vivo
# Protocol: (§2) Drugs were administered IV for 3 consecutive days a week for 3 weeks. HL-60 is a human leukemia cell line (TP53 null) that is part of the NCI 60 cell line panel and can be grown in nude mice.
# (§3) First, 10^7 tumor cells from culture in Matrigel™ of HL-60 human leukemia or LoVo colon cancer were implanted subcutaneously in the flank of 1.75-fold the number of NCr-nu/nu mice required for the study. Study initiation began when the required number of mice had tumors of approximately: • 100 to 250 mm^3 (target group mean tumor volume of approximately 175 mm^3) for the first set of studies. • 14 to 63 mm^3 (target group mean tumor weight of approximately 30 mm^3) for the second set of studies.
# (§4) Mice with tumors in the proper volume range were arbitrarily assigned to groups. Mice received test article on 3 consecutive days per week for 3 weeks. Mice were observed daily for mortality and moribundity with weights and the tumor measurements taken twice weekly. Tumor volume was determined using the formula for an ellipsoid sphere: Length × Width^2/2 = Volume (mm^3). The experiments were scheduled to last for 60 days from the day of tumor implant. Any animal whose weight decreased more than 30% from the weight on the first day of treatment or whose tumor reached 4000 mm^3 in volume, ulcerated or sloughed off, or was moribund was euthanized prior to study termination.
# [4] = tested on: LoVo colon cancer (TP53 WT) xenograft; type: in vivo
# Protocol: as §2, §3, §4
# RPMI-8226 = experiment: NCI 60 cell line panel: RPMI-8226; type: cell-based, human; conditions: Leukemia, TP53 null/mutant
# Text: as §1
# A549/ATCC = experiment: NCI 60 cell line panel: A549/ATCC; type: cell-based, human; conditions: NSCL, TP53 wild type
# Text: as §1
# HOP-92 = experiment: NCI 60 cell line panel: HOP-92; type: cell-based, human; conditions: NSCL, TP53 null/mutant
# Text: as §1
# NCI-H23 = experiment: NCI 60 cell line panel: NCI-H23; type: cell-based, human; conditions: NSCL, TP53 null/mutant
# Text: as §1
# NCI-H322M = experiment: NCI 60 cell line panel: NCI-H322M; type: cell-based, human; conditions: NSCL, TP53 null/mutant
# Text: as §1
# SF-295 = experiment: NCI 60 cell line panel: SF-295; type: cell-based, human; conditions: CNS cancer, TP53 null/mutant
# Text: as §1
# SNB-19 = experiment: NCI 60 cell line panel: SNB-19; type: cell-based, human; conditions: CNS cancer, TP53 null/mutant
# Text: as §1
# SNB-75 = experiment: NCI 60 cell line panel: SNB-75; type: cell-based, human; conditions: CNS cancer, TP53 null/mutant
# Text: as §1
# MALME-3M = experiment: NCI 60 cell line panel: MALME-3M; type: cell-based, human; conditions: Melanoma, TP53 wild type
# Text: as §1
# M14 = experiment: NCI 60 cell line panel: M14; type: cell-based, human; conditions: Melanoma, TP53 null/mutant
# Text: as §1
# UACC-62 = experiment: NCI 60 cell line panel: UACC-62; type: cell-based, human; conditions: Melanoma, TP53 wild type
# Text: as §1
# IGROV-1 = experiment: NCI 60 cell line panel: IGROV-1; type: cell-based, human; conditions: Ovarian cancer, TP53 null/mutant
# Text: as §1
# OVCAR-4 = experiment: NCI 60 cell line panel: OVCAR-4; type: cell-based, human; conditions: Ovarian cancer, TP53 null/mutant
# Text: as §1
# OVCAR-8 = experiment: NCI 60 cell line panel: OVCAR-8; type: cell-based, human; conditions: Ovarian cancer, TP53 null/mutant
# Text: as §1
# NCI/ADR-RES = experiment: NCI 60 cell line panel: NCI/ADR-RES; type: cell-based, human; conditions: Ovarian cancer, TP53 null/mutant
# Text: as §1
# SK-OV-3 = experiment: NCI 60 cell line panel: SK-OV-3; type: cell-based, human; conditions: Ovarian cancer, TP53 null/mutant
# Text: as §1
# A498 = experiment: NCI 60 cell line panel: A498; type: cell-based, human; conditions: Renal cancer, TP53 wild type
# Text: as §1
# RXF 393 = experiment: NCI 60 cell line panel: RXF 393; type: cell-based, human; conditions: Renal cancer, TP53 null/mutant
# Text: as §1
# SN12C = experiment: NCI 60 cell line panel: SN12C; type: cell-based, human; conditions: Renal cancer, TP53 null/mutant
# Text: as §1
# TK-10 = experiment: NCI 60 cell line panel: TK-10; type: cell-based, human; conditions: Renal cancer, TP53 null/mutant
# Text: as §1
# DU-145 = experiment: NCI 60 cell line panel: DU-145; type: cell-based, human; conditions: Prostate cancer, TP53 null/mutant
# Text: as §1
# MCF7 = experiment: NCI 60 cell line panel: MCF7; type: cell-based, human; conditions: Breast cancer, TP53 wild type
# Text: as §1
# HS 578T = experiment: NCI 60 cell line panel: HS 578T; type: cell-based, human; conditions: Breast cancer, TP53 null/mutant
# Text: as §1
# in vivo = conditions: nude, mouse, iv
# Protocol: Three mice were placed in a dose group on the first day of treatment (Day 1). […] Animals were observed daily for mortality and moribundity. Body weights were measured daily starting on day 1.
# [5] = 55 cell lines tested for both compounds
structure (smiles),measurement,setting,value
"Nc1ncn([C@@H]2O[C@H](CO)[C@@H](O)C2(F)F)c(=O)n1 [NUC013, 5-aza-2′,2′-difluroro deoxycytidine]",GI50,[1],4.54 µM
same,Number of cell lines with growth inhibition at 10 µM >50%,NCI 60 cell line panel; [5],24
same,Number of cell lines with growth inhibition at 10 µM ≤50%,NCI 60 cell line panel; [5],31
same,Number of cell lines with growth inhibition at 10 µM >50%,NCI 60 cell line panel; TP53 (Null/Mutant) cell lines,13
same,Number of cell lines with growth inhibition at 10 µM ≤50%,NCI 60 cell line panel; TP53 (Null/Mutant) cell lines,27
same,Number of cell lines with growth inhibition at 10 µM >50%,NCI 60 cell line panel; TP53 (WT) cell lines,11
same,Number of cell lines with growth inhibition at 10 µM ≤50%,NCI 60 cell line panel; TP53 (WT) cell lines,4
same,identification in plasma at the 6 and 24 h timepoints,"[2]; mice, IV",could not be identified
same,half-life,"[2]; mouse, plasma, mice, intravenous injection, read-out: half-life",20.1 min
same,half-life,"[2]; mouse, plasma, mouse, IV, plasma, non-compartmental, read-out: t1/2 (converted)",20.1 min
same,AUC Extr,"[2]; mouse, IV, plasma",0.04%
same,AUC(0-inf),"[2]; mouse, IV, plasma",11100 ng·h/mL
same,AUC(0-t),"[2]; mouse, IV, plasma",11100 ng·h/mL
same,C0,"[2]; mouse, IV, plasma",36900 ng/mL
same,Last time point for AUClast,"[2]; mouse, IV, plasma",4 h
same,MRT,"[2]; mouse, IV, plasma",17.5 min
same,Vd,"[2]; mouse, IV, plasma, read-out: Vss",0.26 L/kg
same,median survival (MS),"[3]; HL-60 first study, NUC013 5.8 mg/kg IV, saline MS = 25 days",28.5 days
same,mice died or euthanized for moribundity (out of 10),"[3]; HL-60 first study, NUC013 equimolar dose (5.8 mg/kg) IV",none
same,median survival (MS),"[3]; HL-60 second study, NUC013 20 mg/kg IV, saline MS = 26.5 days",32 days
same,tumor volume lower than saline control (maximum),"[3]; HL-60 second study, NUC013 20 mg/kg IV, study days 21 and 25",47.8%
same,median survival (MS),"[4]; LoVo first study, NUC013 5.8 mg/kg IV",60 days
same,mean tumor volume lower compared to controls,"[4]; LoVo first study, NUC013 equimolar dose (5.8 mg/kg) IV, study day 27",24.3%
same,median survival (MS),"[4]; LoVo second study, NUC013 20 mg/kg IV",undefined
same,mean tumor volume lower compared to controls,"[4]; LoVo second study, NUC013 20 mg/kg IV, study day 30",50.9%
same,median survival (MS),"[4]; LoVo second study, NUC013 40 mg/kg IV",undefined
same,mean tumor volume lower compared to controls,"[4]; LoVo second study, NUC013 40 mg/kg IV, study day 30",53.7%
same,Growth (%) at 10 µM,RPMI-8226,39.24%
same,Growth (%) at 10 µM,A549/ATCC,37.91%
same,Growth (%) at 10 µM,HOP-92,34.34%
same,Growth (%) at 10 µM,NCI-H23,30.61%
same,Growth (%) at 10 µM,NCI-H322M,70.00%
same,Growth (%) at 10 µM,SF-295,77.93%
same,Growth (%) at 10 µM,SNB-19,58.88%
same,Growth (%) at 10 µM,SNB-75,64.95%
same,Growth (%) at 10 µM,MALME-3M,67.90%
same,Growth (%) at 10 µM,M14,15.55%
same,Growth (%) at 10 µM,UACC-62,47.29%
same,Growth (%) at 10 µM,IGROV-1,56.77%
same,Growth (%) at 10 µM,OVCAR-4,94.88%
same,Growth (%) at 10 µM,OVCAR-8,49.95%
same,Growth (%) at 10 µM,NCI/ADR-RES,42.13%
same,Growth (%) at 10 µM,SK-OV-3,71.09%
same,Growth (%) at 10 µM,A498,38.04%
same,Growth (%) at 10 µM,RXF 393,44.97%
same,Growth (%) at 10 µM,SN12C,51.65%
same,Growth (%) at 10 µM,TK-10,91.13%
same,Growth (%) at 10 µM,DU-145,43.48%
same,Growth (%) at 10 µM,MCF7,20.74%
same,Growth (%) at 10 µM,HS 578T,90.37%
same,MTD at 3 weeks,in vivo,> 120 mg/kg
